The text below walks through data of US7223793B2, “Phenolic acid derivatives and composition for preventing or treating blood lipid level-related diseases comprising the same” (Bionutrigen Co., Ltd., priority 2001, dated 2007).

In assay [1] the test system is New Zealand White rabbits. Description: Fatty streak in the main artery of cholesterol-fed rabbits (Experimental Example 2). To be noted: 8 weeks; for Proportion of stained region (fatty streak region) per unit area of the main artery: 1% cholesterol + RC4 diet, lovastatin 1 mg/kg or BN30028 0.05 wt %, Oil Red O, average ± standard deviation; for Proportion of the fatty streak region compared to the control group / Arterial endothelium, macrophage-lipid complex / atherosclerotic plaque (photographs): 1% cholesterol diet; for Arterial endothelium, macrophage-lipid complex / atherosclerotic plaque (photographs): FIGS. 1a-1c. The class given is in vivo, rabbit. The protocol: The rabbits raised in Step 1 were sacrificed and their chests were incised. The incision was performed downward to the diaphragm along the aortic arch and the fat surrounding the main artery was removed. The main artery was incised in the middle along the longitudinal axis from the second aortic intercostal artery anastomoses to the seventh aortic intercostal artery anastomoses and fixed with 10% neutral buffered formalin for 24 hours. Then, the incised main artery was pinned to a dish for staining of fatty streaks according to the method of Esper, E., et al. (J. Lab. Clin. Med., 121, 103-110 (1993)). The staining carried out by washing the artery three times with propylene glycol for 2 minutes respectively. The artery was stained for 30 minutes with a saturated solution of Oil Red O (ORO, Sigma Co.) dissolved in propylene glycol. Thereafter, the artery was washed twice with 85% propylene glycol for 3 minutes respectively to remove the remaining staining solution and, then once with physiological saline. The artery was photographed and the photograph was traced. The proportion (%) of stained region (fatty streak region) per unit area of the main artery was determined with an image analyzer (LEICA, Q-600, Germany). The significant differences between the test groups were tested by student t-test using Microsoft excel (version 7.0) program

The next assay addresses T1, HMG-CoA reductase (Rattus norvegicus, UniProt P51639).
T1 construct: the supernatant was ultracentrifuged (100,000×g for 60 minutes) to obtain microsomal precipitates; from tissue; host or cells: liver microsomes of treated rats
T1 sequence (P51639 1-887): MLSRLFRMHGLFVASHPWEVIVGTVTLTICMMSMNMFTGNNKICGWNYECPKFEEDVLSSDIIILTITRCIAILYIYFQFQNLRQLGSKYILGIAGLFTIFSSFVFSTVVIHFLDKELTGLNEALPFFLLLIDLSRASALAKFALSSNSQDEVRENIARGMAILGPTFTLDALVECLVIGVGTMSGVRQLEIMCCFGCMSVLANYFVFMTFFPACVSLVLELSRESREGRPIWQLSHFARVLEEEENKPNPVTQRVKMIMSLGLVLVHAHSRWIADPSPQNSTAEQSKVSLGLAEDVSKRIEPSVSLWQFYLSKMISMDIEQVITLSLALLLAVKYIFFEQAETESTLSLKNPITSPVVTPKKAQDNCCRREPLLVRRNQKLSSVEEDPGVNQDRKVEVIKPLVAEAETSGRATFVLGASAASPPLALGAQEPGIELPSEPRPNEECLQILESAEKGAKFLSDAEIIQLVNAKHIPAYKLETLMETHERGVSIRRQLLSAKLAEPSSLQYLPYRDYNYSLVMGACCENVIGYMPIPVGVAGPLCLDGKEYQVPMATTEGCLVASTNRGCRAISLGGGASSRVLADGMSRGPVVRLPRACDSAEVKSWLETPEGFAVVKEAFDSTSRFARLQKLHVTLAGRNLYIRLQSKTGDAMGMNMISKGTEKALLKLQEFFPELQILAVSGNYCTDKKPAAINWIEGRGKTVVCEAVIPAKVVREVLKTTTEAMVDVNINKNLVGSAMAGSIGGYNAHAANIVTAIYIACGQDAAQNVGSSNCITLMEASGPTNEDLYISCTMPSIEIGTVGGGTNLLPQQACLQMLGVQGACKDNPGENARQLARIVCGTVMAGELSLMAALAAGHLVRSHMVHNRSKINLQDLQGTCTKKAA
Description: HMG-CoA reductase activity in liver microsomes of treated rats (Experimental Example 6, Step 4). The assay is classed as in vivo. Further details: HMG-CoA reductase: unit not given here. Conditions: for HMG-CoA reductase: activity in liver microsomes of rats fed 6 weeks, CoA-SH by absorbance at 412 nm, average; for Inhibition of HMG-CoA reductase activity: liver microsomes of rats fed 6 weeks, relative to control group. The protocol:
In order to measure the activity of HMG-CoA reductase, the method described by Hulcher et al. (J. Lipid Res., 14, 625-641 (1973)) was employed after some modification. In this method, the concentration of the coenzyme-A (CoA-SH), which is produced when HMG-CoA is reduced to a mevalonate salt by the action of HMG-CoA reductase, is determined by spectroscopy and the activity of HMG-CoA reductase is calculated therefrom.
3 g of liver tissue taken from each sacrificed rat of Step 2 was washed successively with 100 ml of a cold Saline (0.15M NaCl) and 100 ml of a cold buffer solution A (0.1M triethanolamine, HCl/0.2M EDTA/2 mM dithiothreitol). The cold buffer solution A was added to the liver tissue in an amount of 2 ml per 1 g of the liver tissue and the mixture was homogenized with a homogenizer. The homogenate was centrifuged (15,000×g for 15 minutes), and then, the supernatant was ultracentrifuged (100,000×g for 60 minutes) to obtain microsomal precipitates. The precipitates thus obtained were washed with 2 mL of a cold buffer solution A and ultracentrifuged (100,000×g for 60 minutes) to obtain precipitates. The precipitates thus obtained were washed with a 1 mL of cold buffer solution A and kept in a 1.5 mL tube at −70° C.
The reaction substrates used in the measurement of HMG-CoA reductase activity were as follows:
i) buffer solution B: 0.1M triethanolamine, HCl/0.02M EDTA (pH7.4),
ii) HMG-CoA solution: 150 mmoles/culture medium, and
iii) NADPH solution: 2 mmoles/culture medium.
The suspension (microsome) prepared in the above was mixed with the reaction substrate and the resulting mixture was placed in a centrifugation tube and reacted at 37° C. for 30 minutes. The reaction mixture was treated with 20 μl of 0.1M sodium arsenite and allowed to stand for 1 minute. Then, the mixture was reacted with 100 μl of citrate buffer solution (2M citrate/3% sodium tungstate, pH 3.5) at 37° C. for 10 minutes followed by centrifugation (25,000×g for 15 minutes) to remove protein. 1 mL of the supernatant thus obtained was transferred into a tube with a cap and 0.2 mL of 2M tris-HCl solution (pH 10.6) and 0.1 ml of 2M tris-HCl solution (pH 8.0) were added thereto to adjust the pH of the reaction to 8.0. Then, the reaction was mixed with 20 μl of DTNB buffer solution (3mM DTNB/0.1M triethanolamine/0.2M EDTA, pH 7.4) and the absorbance of the mixture was determined at 412 nm to calculate the amount of CoA-SH (activity of HMG-COA reductase). The inhibition of HMG-CoA reductase activity of the control and treated groups were calculated based on the above results.

Marks after values point to notes of the source that are not given here.

For `CC[C@H](C)C(=O)O[C@H]1C[C@@H](C)C=C2C=C[C@H](C)[C@H](CC[C@@H]3C[C@@H](O)CC(=O)O3)[C@H]21` [Lovastatin, reference compound], in assay [1], the “Proportion of stained region (fatty streak region) per unit area of the main artery” value is recorded as 18.2 ± 10.4^b %; the “Proportion of the fatty streak region compared to the control group” value is recorded as “significantly reduced”; the “Arterial endothelium, macrophage-lipid complex / atherosclerotic plaque (photographs)” value is given as “clean”. Also, on HMG-CoA reductase, the HMG-CoA reductase is 173.25 and the “Inhibition of HMG-CoA reductase activity” value is 29.40%.
In the case of `COC(=O)C(CO)NC(=O)CCc1ccc(O)c(O)c1` (stereo not drawn) [BN30063, 2-[3-(3,4-dihydroxyphenyl)propionylamino]-3-hydroxy propionic acid methyl ester], at HMG-CoA reductase, the HMG-CoA reductase amounted to 196.11 and the “Inhibition of HMG-CoA reductase activity” value is 20.09%.
As for `CC(C)CC(NC(=O)CCc1ccc(O)c(O)c1)C(=O)O` (stereo not drawn) [BN30064, 2-[3-(3,4-dihydroxyphenyl)propionylamino]-4-methyl pentanoic acid], the HMG-CoA reductase at HMG-CoA reductase turned out to be 124.74.
With `COC(=O)C(Cc1ccccc1)NC(=O)CCc1ccc(O)c(O)c1` (stereo not drawn) [BN30028, 2-[3-(3,4-dihydroxyphenyl)propionylamino]-3-phenyl propionic acid methyl ester], in assay [1], the “Proportion of stained region (fatty streak region) per unit area of the main artery” value was 16.1 ± 9.6^b %; the “Proportion of the fatty streak region compared to the control group” value is listed as “significantly reduced”; the “Arterial endothelium, macrophage-lipid complex / atherosclerotic plaque (photographs)” value is given as “clean”.
In the case of `O=C(O)CC(NC(=O)CCc1ccc(O)c(O)c1)C(=O)O` (stereo not drawn) [BN30067, 2-[3-(3,4-dihydroxyphenyl)propionylamino]-succinic acid], the HMG-CoA reductase on HMG-CoA reductase was 136.15.
